Tests used:
RhlR = target: T1, RhlR (Pseudomonas aeruginosa, UniProt P54292); assay: Whole-cell sensing system harboring plasmid pSB406 (rhlR, PrhlI::luxCDABE) in E. coli JM109, bioluminescence; format: cell-based; conditions: for response of the biosensing system at the highest concentration tested: pSB406, 1×10^−4 M; for Limit of Detection: concentration giving signal >= blank average plus three standard deviations; for Signal Intensity at 1 × 10^−4 M: pSB406 sensing cells, 2 h incubation at 37° C., racemic AHL, average ± one standard deviation
T1 construct: expressed in transfected cells; host or cells: Escherichia coli JM109 transformed with plasmid pSB406
Experimental: (§1) The bacterial strain Escherichia coli JM109 was purchased from Stratagene (Cedar Creek, Tex.). Plasmids pSB406 and pSB1075 were transformed respectively into competent E. coli JM109 cells using the standard protocol provided by the manufacturer. The transformed cells were grown at 37° C. overnight on LB agar plates containing 50 μg/mL ampicillin. Cells from a single colony were grown overnight at 37° C., 250 rpm in LB broth containing the same amount (w/v) of ampicillin. Glycerol stocks were prepared from those cell cultures and stored at −80° C. Fresh cell cultures were obtained from the glycerol stocks and grown in an orbital shaker at 37° C., 250 rpm until an optical density at 600 nm (OD600 nm) of 0.45-0.50 was reached.
(§2) Commercially available AHLs were dissolved in acetonitrile to obtain 1×10^−2 M stock solutions, which were serially diluted with distilled, deionized water. AHL standard solutions of concentrations ranging from 1×10^−4 to 1×10^−9 M were obtained. A 1% solution of acetonitrile in distilled, deionized water was used as blank. […] A total of 100 μL of each of these solutions was added in triplicate to culture tubes containing 1 mL of cell culture grown to an OD600 nm of 0.45-0.50. These culture tubes were then incubated in an orbital shaker at 37° C. at 250 rpm for 2 h. The induced bioluminescence was then measured using a microplate reader after transferring 200 μL aliquots in triplicate from each culture tube into a 96-well micro titer plate. The total measuring time/well was 0.20 s. The light intensity was expressed in relative light units (RLU). The results were plotted using the software GraphPad Prism 4 (GraphPad Software, Inc., San Diego, Calif.).
(§3) Two different whole-cell sensing systems were used, harboring either the pSB406 or pSB1075 plasmid, which are based on P. aeruginosa quorum sensing regulatory systems. The plasmids pSB406 and pSB 1075 incorporate the genes rhlR and lasR, respectively, and the reporter gene cassette luxCDABE under transcriptional control of the promoters of the genes rhlI and lasI (PrhlI and PlasI) respectively. Since the rhlI and lasI genes code for the synthases for the AHLs, they are not cloned into plasmids used for sensing. When AHLs are present in the environment of the sensing bacterial cells, they bind to the regulatory proteins RhlR and LasR. Subsequently, the regulatory protein-AHL complex binds to the corresponding promoter and activates gene transcription (see, e.g., FIG. 2A for a schematic representation of AHL-dependent regulation of quorum sensing in LuxR/LuxI-type systems, and FIG. 2B for a schematic representation of plasmids pSB1075 and pSB406). As a result, the luxCDABE cassette is expressed and a bioluminescent signal is produced. Further, the bioluminescence signal produced is directly proportional to the amount of the target AHL molecule present.
Characterization of the whole-cell biosensing systems for the detection of AHLs was performed by incubating the bacterial cells with standard N-acyl homoserine lactone compounds with acyl side chains of different lengths. […] [19] […] Both compounds could be detected at concentrations as low as 1×10^−9 M, with a dynamic range of 4 orders of magnitude. The limit of detection was defined as the analyte concentration that produced a signal equal to or higher than the average signal produced by the blank plus three standard deviations.

LasR = target: T2, LasR (Pseudomonas aeruginosa, UniProt P25084); assay: Whole-cell sensing system harboring plasmid pSB1075 (lasR, PlasI::luxCDABE) in E. coli JM109, bioluminescence; format: cell-based; conditions: for Dynamic Range / Limit of Detection: pSB1075; for Limit of Detection: concentration giving signal >= blank average plus three standard deviations; for Signal Intensity at 1 × 10^−4 M: pSB1075 sensing cells, 2 h incubation at 37° C., racemic AHL, average ± one standard deviation (n = 3)
T2 construct: expressed in transfected cells; host or cells: Escherichia coli JM109 transformed with plasmid pSB1075
Experimental: as §1, §2, §3
The limit of detection was 1×10^−9 M for C14-HSL, as well as C12-HSL.

V. harveyi strain BB170 = assay: AI-2 whole-cell sensing with bioluminescent sensor strain BB170; format: cell-based, Vibrio harveyi; conditions: 10^−7 M AI-2, after 2.5 hours of incubation with the BB170 sensor strain
Experimental: AB media used to grow V. harveyi strain BB170, a genetically modified strain that produces light in response to AI-2, was prepared as described previously. The BB170 sensor strain was grown overnight in AB medium at 30° C. and 175 rpm. The following day, overnight grown BB170 culture was diluted in AB medium to obtain a final O.D.600 nm of 0.010.
Saliva samples were collected and processed as described hereinabove. The available stock of AI-2 was 3.9 mM. AI-2 standard solutions with concentrations ranging from 2.5×10^−4M to 10^−7M were then prepared by using distilled, deionized water. 10 μL of AI-2 standard solution was incubated with 90 μL of BB170 bacterial culture at O.D.600 nm 0.010, in triplicate on a microtitre plate. 10 μL water incubated with 90 μL of BB170 served as a blank. An orbital shaker set at 30° C. and 175 rpm was used for incubation. Bioluminescence was then measured over a period of time. In order to evaluate the effect of saliva matrix, saliva samples were also spiked with a particular concentration of AI-2 and then incubated with the BB170 strain. […]
Vibrio harveyi bioluminescent strain BB170 was used for the detection of AI-2 and was modified from the wild type V. harveyi so that it induces lux expression exclusively in response to AI-2. AI-2 is detected by BB170 when it binds to the periplasmic protein LuxP. […]

T1 sequence (P54292 whole entry): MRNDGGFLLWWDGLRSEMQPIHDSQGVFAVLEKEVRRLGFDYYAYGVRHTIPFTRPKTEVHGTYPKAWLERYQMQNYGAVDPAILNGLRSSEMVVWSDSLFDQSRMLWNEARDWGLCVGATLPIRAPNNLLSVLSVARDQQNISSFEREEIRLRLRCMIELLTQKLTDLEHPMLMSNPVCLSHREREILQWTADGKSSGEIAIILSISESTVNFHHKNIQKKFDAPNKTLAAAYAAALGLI
T2 sequence (P25084 whole entry): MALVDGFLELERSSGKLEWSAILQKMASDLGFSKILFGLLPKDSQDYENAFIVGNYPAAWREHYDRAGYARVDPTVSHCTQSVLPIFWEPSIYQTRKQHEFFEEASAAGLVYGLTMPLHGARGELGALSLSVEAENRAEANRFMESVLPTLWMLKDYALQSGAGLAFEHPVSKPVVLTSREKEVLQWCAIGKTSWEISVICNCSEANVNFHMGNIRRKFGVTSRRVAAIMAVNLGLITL

Row | Molecule | L-isomer versus DL-racemic mixture: limit of detection, dynamic range and maximum signal intensity of the dose-response curves (RhlR; pSB406) | Dynamic Range (RhlR; pSB406) | dynamic range (RhlR; pSB406) | response of the biosensing system at the highest concentration tested (RhlR) | Limit of Detection (RhlR; pSB406) | Signal Intensity at 1 × 10^−4 M (RhlR) | Dynamic Range (LasR) | Limit of Detection (LasR) | Signal Intensity at 1 × 10^−4 M (LasR) | response of the whole-cell sensor at the highest concentration tested (LasR; pSB1075, 1×10^−4 M) | Average Signal (V. harveyi strain BB170)
1 | CCCC(=O)CC(=O)N[C@H]1CCOC1=O [3-oxo-C6-HSL, N-(3-oxo)-hexanoyl homoserine lactone] | no significant differences | – | – | – | – | – | – | – | – | – | –
2 | CCCC(=O)NC1CCOC1=O (centres unmarked) [C4-HSL, N-butyryl homoserine lactone] | – | 1 to 100000 nM | 4 orders of magnitude | induced the maximum response | 1 nM | 19.99 ± 0.00 ×10^5, RLU | 100 to 100000 nM | 100 nM | 1.87 ± 0.06 ×10^5, RLU | – | –
3 | CCCCCC(=O)NC1CCOC1=O (centres unmarked) [C6-HSL, N-hexanoyl homoserine lactone] | – | 1 to 100000 nM | 4 orders of magnitude | induced the maximum response | 1 nM | 19.64 ± 0.25 ×10^5, RLU | – | >100000 nM | 2.53 ± 1.15 ×10^5, RLU | – | –
4 | CCCCCCCC(=O)NC1CCOC1=O (centres unmarked) [C8-HSL, N-octanoyl homoserine lactone] | – | 1 to 100000 nM | – | – | 1 nM | 6.87 ± 0.23 ×10^5, RLU | 10000 to 100000 nM | 10000 nM | 7.94 ± 0.70 ×10^5, RLU | – | –
5 | CCCCCCCCCCCC(=O)NC1CCOC1=O (centres unmarked) [C12-HSL, N-dodecanoyl homoserine lactone] | – | 10 to 10000 nM | – | – | 10 nM | 8.40 ± 0.55 ×10^5, RLU | 1 to 10000 nM | 1 nM | 8.99 ± 0.17 ×10^5, RLU | – | –
6 | CCCCCCCCCCCCCC(=O)NC1CCOC1=O (centres unmarked) [C14-HSL, N-tetradecanoyl homoserine lactone] | – | – | – | – | >10000 nM | 4.22 ± 0.22 ×10^5, RLU | 1 to 100000 nM | 1 nM | 11.74 ± 0.09 ×10^5, RLU | induced the maximum response | –
7 | Autoinducer-2 [AI-2] | – | – | – | – | – | – | – | – | – | – | 324218 RLU

From patent US8663927B2, “Systems and methods for diagnosis and monitoring of bacteria-related conditions” (priority 2007, dated 2014)
